Tests used:
[1] = tested on: HUVEC; test: Agonist-enhanced neutrophil adherence to HUVEC; type: cell-based, human; conditions: 20 μmol/l, 1 hr pre-treatment, TNF 4 hr
Method: FIG. 11 is a representation showing effect of β-oxa; β-thia and natural PUFA on TNF-enhanced neutrophil adherence to HUVEC. HUVEC were pre-treated with the fatty acids (20 μmol/l) for 60 min at 37° C. before being stimulated with TNF (125 U/200 μl medium) for 4 hr at 37° C. The cells were then co-incubated with neutrophils (5×10^5 cells/well) at 37° C. for 30 min and the degree of neutrophil adherence quantitated. The results are expressed as % of control and represent the mean±SEM of three separate experiments each performed in triplicate. * p<0.05, ***p<0.001, for significant differences between pre-treatment with fatty acid and control (one-way analysis of variance followed by the Dunnett test for multiple comparisons).
Adhesion of neutrophils, prepared by the rapid-single-step method (Ferrante et al, J. Immun. Methods 36:109-117, 1980), to HUVEC isolated from umbilical cords was carried out essentially as described (Huang et al, 1997 supra).
The magnitude of the suppressive effect of -MP3 was dependent on-pre-treatment time and concentration with significant effects observed with a pre-treatment time of 1 hr and a concentration of ≧5 μmol/l.

[2] = tested on: E-selectin; test: Effect of lipoxygenase/cyclooxygenase inhibitors and antioxidants on suppression of E-selectin expression by β-oxa-23:4n-6; type: cell-based, human; conditions: HUVEC pre-treated 15 min with inhibitor, then 20 μmol/l β-oxa-23:4n-6 60 min, TNF-α 4 h
Method: FIG. 16 is a representation showing the effects of lipoxygenase/cyclooxygenase inhibitors and antioxidants on the modulation of E-selectin expression on HUVEC by β-oxa-23:4n-6. HUVEC were pre-treated with NDGA, baicalein, MK886, indomethacin, Vitamin E, or diluent (control) for 15 min. The cells were then further incubated with 20 μmol/l β-oxa-23:4n-6 or diluent (control) for 60 min followed by TNF-α (125 U/200 μl medium) for 4 hr and the expression of E-selectin adhesion molecule was determined. The results are expressed as % inhibition of the suppressive effect of β-oxa-23:4n-6 and represent the mean±SEM of three separate experiments each performed in quadruplicate. * p<0.01, for significant differences between pre-treatment with inhibitor and corresponding control (one-way analysis of variance followed by the Dunnett test for multiple comparisons).
Confluent second-passage HUVEC in 96-well tissue culture plates were pre-treated with 10 μmol/l NDGA (non-selective lipoxygenase inhibitor); 10 μmol/l baicalein (a specific 12-lipoxygenase inhibitor); 500 nM MK886 (an inhibitor of the 5-lipoxygenase activating protein), […] indomethacin (a cyclooxygenase inhibitor); 10 μmol/l Vitamin E (an antioxidant); or diluent (control) for 15 min. The cells were then further incubated with 20 μmol/l β-oxa-23:4n-6 or diluent (control) for 60 min followed by TNF-α (125 U) for 4 h. The expression of E-selectin adhesion molecule was determined by ELISA. While none of the inhibitors/antioxidants affected the ability of TNF to enhance E-selectin expression on HUVEC, the ability of β-oxa 23:4n-6 to suppress the action of TNF was reduced when the cells were pre-treated with either NDGA or baicalein but not with indomethacin, Vitamin E or MK886 (FIG. 16).

[3] = Formalin-induced pain test (hind paw licking time); type: in vivo; conditions: 30 min prior to formalin, mean of 5 animals
Method: Investigations of the effects of PT2 on pain induced by phenylquinolic acid (PQ writhing) and formalin have been made. In both the PQ writhing test (FIG. 3) and the formalin algesia test (FIG. 4), PT2 administered by intraperitoneal inoculation reduced pain and compared favourably with pain reduction by aspirin (oral, 100 mg/kg). In these tests, the EPUFA was administered 30 min before the pain stimulus and effects recorded over the following 20 min.
Investigations of PT2 in the formalin-induced analgesia model looking specifically at the biphasic response have also been undertaken and are shown in Table 1. It is well documented that in this model, aspirin suppresses only pain related to the inflammatory process (15-20 mins post-administration of formalin), while morphine suppresses pain in both phases of the response (0-5 min and 15-20 min).
Compounds were administered intraperationedly (ip) 30 min prior to the administration of formalin (0.02 ml, 1% solution) via subplantar injection into the right hind paw. Reduction of the induced hind paw licking time recorded during the following 0-5 min period (Phase I response) or 15-20 min period (Phase II response) was determined. The data in Table 1 are the mean responses of 5 animals in each group.

[4] = target: T1, PKC isozyme β2 (Homo sapiens, UniProt P05771); test: PMA-induced PKC translocation in HL-60 cells (Western blot); type: cell-based; set-up: key: +++: strong inhibition of PKC activation; −: no inhibition of PKC activation; conditions: 20 μM, 60 min
T1 construct: endogenous in cells; host or cells: HL-60
T1 sequence (P05771 1-673 isoform P05771-2): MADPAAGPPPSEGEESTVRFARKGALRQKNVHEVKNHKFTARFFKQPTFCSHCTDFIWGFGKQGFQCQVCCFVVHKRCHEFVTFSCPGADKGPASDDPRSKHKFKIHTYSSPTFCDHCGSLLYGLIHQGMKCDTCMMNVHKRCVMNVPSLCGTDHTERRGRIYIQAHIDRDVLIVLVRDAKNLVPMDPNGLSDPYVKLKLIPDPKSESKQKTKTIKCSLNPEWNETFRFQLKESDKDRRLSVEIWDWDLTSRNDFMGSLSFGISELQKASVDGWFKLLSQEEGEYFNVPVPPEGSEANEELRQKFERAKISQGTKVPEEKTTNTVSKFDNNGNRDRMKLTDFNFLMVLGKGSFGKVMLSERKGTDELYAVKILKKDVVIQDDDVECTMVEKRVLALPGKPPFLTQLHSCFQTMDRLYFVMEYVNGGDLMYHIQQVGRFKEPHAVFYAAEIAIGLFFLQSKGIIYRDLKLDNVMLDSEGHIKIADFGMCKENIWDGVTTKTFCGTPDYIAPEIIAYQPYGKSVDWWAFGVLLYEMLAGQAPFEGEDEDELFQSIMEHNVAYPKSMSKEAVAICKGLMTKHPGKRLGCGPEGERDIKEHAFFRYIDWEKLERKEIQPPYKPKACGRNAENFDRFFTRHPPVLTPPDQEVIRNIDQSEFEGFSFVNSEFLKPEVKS
Method: (§1) The effects of nitroanalogs of PUFAs on PKC activation were determined. Lx compounds at a concentration of 20 μM were incubated with the HL-60 cell line (final condition 10^6 cells/ml) for 60 min. PKC activation was then attempted to be induced by PMA. PKC enzyme translocation was quantitated by Western blot.

[5] = target: T2, PKC isozyme δ (Homo sapiens, UniProt Q05655); test: as above; type: cell-based; set-up: key: +++: strong inhibition of PKC activation; −: no inhibition of PKC activation; conditions: 20 μM, 60 min
T2 construct: endogenous in cells; host or cells: HL-60
T2 sequence (Q05655 whole entry): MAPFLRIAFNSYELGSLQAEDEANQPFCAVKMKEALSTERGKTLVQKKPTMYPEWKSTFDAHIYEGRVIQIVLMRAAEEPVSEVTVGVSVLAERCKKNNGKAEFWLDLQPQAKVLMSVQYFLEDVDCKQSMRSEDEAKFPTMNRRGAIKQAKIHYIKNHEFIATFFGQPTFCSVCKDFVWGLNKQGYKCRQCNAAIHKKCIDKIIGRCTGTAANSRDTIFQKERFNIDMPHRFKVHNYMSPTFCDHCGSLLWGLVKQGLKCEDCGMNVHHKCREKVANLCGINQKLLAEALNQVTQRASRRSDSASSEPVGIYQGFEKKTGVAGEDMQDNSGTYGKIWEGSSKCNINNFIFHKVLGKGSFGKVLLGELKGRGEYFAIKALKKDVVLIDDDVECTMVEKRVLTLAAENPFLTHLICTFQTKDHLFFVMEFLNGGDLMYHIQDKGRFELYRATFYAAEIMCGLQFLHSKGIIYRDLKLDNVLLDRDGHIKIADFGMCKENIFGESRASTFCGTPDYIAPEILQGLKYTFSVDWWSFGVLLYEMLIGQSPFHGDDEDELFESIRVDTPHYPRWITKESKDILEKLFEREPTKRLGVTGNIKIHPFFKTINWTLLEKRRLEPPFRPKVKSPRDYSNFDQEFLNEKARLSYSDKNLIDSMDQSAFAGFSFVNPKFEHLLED
Method: as §1

[6] = target: T3, PKC isozyme ε (Homo sapiens, UniProt Q02156); test: as above; type: cell-based; set-up: key: +++: strong inhibition of PKC activation; −: no inhibition of PKC activation; conditions: 20 μM, 60 min
T3 construct: endogenous in cells; host or cells: HL-60
T3 sequence (Q02156 1-737): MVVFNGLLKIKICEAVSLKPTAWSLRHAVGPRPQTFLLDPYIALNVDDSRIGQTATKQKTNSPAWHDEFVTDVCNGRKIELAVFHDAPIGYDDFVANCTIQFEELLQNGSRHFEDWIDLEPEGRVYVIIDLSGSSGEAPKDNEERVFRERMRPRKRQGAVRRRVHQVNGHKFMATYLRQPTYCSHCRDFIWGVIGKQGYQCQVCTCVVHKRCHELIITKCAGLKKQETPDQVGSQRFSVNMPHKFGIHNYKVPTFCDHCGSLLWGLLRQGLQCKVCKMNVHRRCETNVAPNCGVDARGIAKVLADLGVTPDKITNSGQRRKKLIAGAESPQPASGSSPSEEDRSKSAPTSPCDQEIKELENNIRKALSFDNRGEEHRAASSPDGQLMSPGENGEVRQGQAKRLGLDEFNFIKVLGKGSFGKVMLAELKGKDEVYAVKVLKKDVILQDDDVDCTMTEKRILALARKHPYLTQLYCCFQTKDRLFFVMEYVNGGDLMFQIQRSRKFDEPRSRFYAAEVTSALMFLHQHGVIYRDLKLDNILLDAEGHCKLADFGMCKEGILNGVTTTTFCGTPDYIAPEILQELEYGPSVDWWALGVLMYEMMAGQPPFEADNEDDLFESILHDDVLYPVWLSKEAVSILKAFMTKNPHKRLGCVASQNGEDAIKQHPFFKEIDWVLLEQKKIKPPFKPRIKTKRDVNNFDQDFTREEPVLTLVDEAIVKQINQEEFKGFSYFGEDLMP
Method: as §1

[7] = target: T4, PKC isozyme β1 (Homo sapiens, UniProt P05771); test: as above; type: cell-based; set-up: key: +++: strong inhibition of PKC activation; −: no inhibition of PKC activation; conditions: 20 μM, 60 min
T4 construct: endogenous in cells; host or cells: HL-60
T4 sequence (P05771 whole entry): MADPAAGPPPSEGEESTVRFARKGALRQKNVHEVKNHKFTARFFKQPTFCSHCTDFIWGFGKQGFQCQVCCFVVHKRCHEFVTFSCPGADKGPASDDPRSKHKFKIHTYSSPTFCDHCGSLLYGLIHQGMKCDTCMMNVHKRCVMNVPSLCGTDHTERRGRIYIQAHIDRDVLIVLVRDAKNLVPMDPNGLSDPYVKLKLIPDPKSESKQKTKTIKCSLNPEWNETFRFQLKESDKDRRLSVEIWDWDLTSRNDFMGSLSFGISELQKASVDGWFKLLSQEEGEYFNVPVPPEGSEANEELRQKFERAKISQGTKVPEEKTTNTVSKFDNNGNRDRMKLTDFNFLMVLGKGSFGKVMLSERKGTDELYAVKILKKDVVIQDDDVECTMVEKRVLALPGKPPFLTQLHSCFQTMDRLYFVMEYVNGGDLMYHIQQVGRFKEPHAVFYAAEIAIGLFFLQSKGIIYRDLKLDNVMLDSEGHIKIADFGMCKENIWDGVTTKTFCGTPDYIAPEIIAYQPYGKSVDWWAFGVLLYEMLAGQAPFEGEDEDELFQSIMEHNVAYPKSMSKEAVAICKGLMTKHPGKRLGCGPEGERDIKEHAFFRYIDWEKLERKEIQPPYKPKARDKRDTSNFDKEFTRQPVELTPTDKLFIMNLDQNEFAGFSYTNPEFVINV
Method: as §1

[8] = target: T5, PKC isozyme α (Homo sapiens, UniProt P17252); test: as above; type: cell-based; set-up: key: +++: strong inhibition of PKC activation; −: no inhibition of PKC activation; conditions: 20 μM, 60 min
T5 construct: endogenous in cells; host or cells: HL-60
Method: as §1

## CCCCC/C=C\C/C=C\CCCCCCCC(=O)O [18:2n-6, octadecadienoic acid, reference compound]
[1]
  Inhibition of TNF-α-enhanced neutrophil adhesion to HUVEC: no significant effect

## COc1ccc2c(c1)c(CC(=O)O)c(C)n2C(=O)c1ccc(Cl)cc1 [indomethacin]
[2]
  Effect on ability of β-oxa 23:4n-6 to suppress TNF-induced E-selectin expression: not

## CCCCC/C=C\C/C=C\C/C=C\CCCCCOCC(=O)O [β-oxa-21:3n-6]
[1]
  Inhibition of TNF-α-enhanced neutrophil adhesion to HUVEC: inhibited their ability to be stimulated

## CCCCC/C=C\C/C=C\C/C=C\CCCCCSCC(=O)O [β-thia-21:3n-6]
[1]
  Inhibition of TNF-α-enhanced neutrophil adhesion to HUVEC: inhibited their ability to be stimulated

## Vitamin E
[2]
  Effect on ability of β-oxa 23:4n-6 to suppress TNF-induced E-selectin expression: not

## CC(C)c1ccc2c(c1)c(SC(C)(C)C)c(CC(C)(C)C(=O)O)n2Cc1ccc(Cl)cc1 [MK886]
[2]
  Effect on ability of β-oxa 23:4n-6 to suppress TNF-induced E-selectin expression: not

## CN1CC[C@]23c4c5ccc(O)c4O[C@H]2[C@@H](O)C=C[C@H]3[C@H]1C5 [Morphine, reference compound]
[3]; 10 mg/kg ip
  % inhibition of pain response, Phase I (0-5 mins): 85%
  % inhibition of pain response, Phase II (15-20 mins): 100%

## CC(Cc1ccc(O)c(O)c1)C(C)Cc1ccc(O)c(O)c1 (stereo not shown) [NDGA, nordihydroguairetic acid]
[2]
  Effect on ability of β-oxa 23:4n-6 to suppress TNF-induced E-selectin expression: reduced

## CC/C=C\C/C=C\C/C=C\CCCCCCCCSCC(=O)O [β-thia-21:3n-3]
[1]
  Inhibition of TNF-α-enhanced neutrophil adhesion to HUVEC: inhibited their ability to be stimulated

## CCCCC/C=C\C/C=C\C/C=C\C/C=C\CCCC[N+](=O)[O-] [Lx4]
[4]
  Inhibition of PKC activation, isozyme β2: +++
[5]
  Inhibition of PKC activation, isozyme δ: +++
[6]
  Inhibition of PKC activation, isozyme ε: −
[7]
  Inhibition of PKC activation, isozyme β1: +++

## CC/C=C\C/C=C\C/C=C\CCCCCCCC[N+](=O)[O-] [Lx2]
[4]
  Inhibition of PKC activation, isozyme β2: +++
[5]
  Inhibition of PKC activation, isozyme δ: −
[6]
  Inhibition of PKC activation, isozyme ε: −
[8]
  Inhibition of PKC activation, isozyme α: −
[7]
  Inhibition of PKC activation, isozyme β1: −

## CCCCCCCCCCCCCCCCCC[N+](=O)[O-] [Lx1]
[4]
  Inhibition of PKC activation, isozyme β2: −
[5]
  Inhibition of PKC activation, isozyme δ: −
[6]
  Inhibition of PKC activation, isozyme ε: −
[8]
  Inhibition of PKC activation, isozyme α: −

## CCCCC/C=C\C/C=C\C/C=C\CCCCC[N+](=O)[O-] [Lx3]
[4]
  Inhibition of PKC activation, isozyme β2: +++
[5]
  Inhibition of PKC activation, isozyme δ: −
[6]
  Inhibition of PKC activation, isozyme ε: −
[8]
  Inhibition of PKC activation, isozyme α: −
[7]
  Inhibition of PKC activation, isozyme β1: −

## CCCCC/C=C\C/C=C\C/C=C\C/C=C\CCCCSCC(=O)O [β-thia-23:4n-6]
[1]
  Inhibition of TNF-α-enhanced neutrophil adhesion to HUVEC: inhibited their ability to be stimulated
[1]; listed as β-thia 23:4n-6
  Inhibition of TNF-α-enhanced neutrophil adhesion to HUVEC: less active than this β-oxa compound

## CC(=O)Oc1ccccc1C(=O)O [Aspirin, reference compound]
[3]; 300 mg/kg ip
  % inhibition of pain response, Phase I (0-5 mins): 30%
  % inhibition of pain response, Phase II (15-20 mins): 91%

## O=c1cc(-c2ccccc2)oc2cc(O)c(O)c(O)c12 [baicalein]
[2]
  Effect on ability of β-oxa 23:4n-6 to suppress TNF-induced E-selectin expression: reduced

## CC/C=C\C/C=C\C/C=C\C/C=C\C/C=C\C/C=C\CCC[N+](=O)[O-] [Lx5]
[4]
  Inhibition of PKC activation, isozyme β2: −
[5]
  Inhibition of PKC activation, isozyme δ: −
[8]
  Inhibition of PKC activation, isozyme α: −
[7]
  Inhibition of PKC activation, isozyme β1: −
